Assay results: ChEMBL document CHEMBL1201862, “PubChem BioAssay data set” (2004)
Activity calls are given as the source filed them.

Tests used:
[1] = molecular target: T1, Sphingosine 1-phosphate receptor 2 (Homo sapiens, UniProt O95136); test: Dose Response Cell Based Assay for Agonists of the S1P2 Receptor of Purchased Analogues. [Related pubchem assays: 729, 843, 854, 736 ]; assay type: functional
[2] = molecular target: Mucolipin-3 (Homo sapiens, UniProt Q8TDD5); test: Dose response cell-based high-throughput screening assay for agonists of the transient receptor potential channel ML3 (TRPML3). [Related pubchem assays: 1526, 1424, 1448 ]; assay type: functional
[3] = molecular target: Ion channel NompC (Danio rerio, UniProt Q7T1G6); test: Fluorescence counterscreen assay for TRPML3 agonists: dose response cell-based high-throughput screening assay to identify agonists of the transient receptor potential channel N1 (TRPN1). [Related pubchem assays: 1526, 1424, 1448 ]; assay type: functional
[4] = Counterscreen for IDE inhibitors: Luminescence-based cell-based high throughput dose response assay to identify compounds that are cytotoxic to HEK cells. [Related pubchem assays: 434962 (Primary screen (IDE inhibitors in singlicate)), 449730 (Counterscreen (Cytotoxicity in triplicate)), 435028 (Confirmation (IDE inhibitors in triplicate)) …; assay type: functional; conditions: HEK293
[5] = molecular target: T2, Insulin-degrading enzyme (Homo sapiens, UniProt P14735); test: Dose Response: Fluorescence polarization-based cell-based high throughput dose response assay for inhibitors of insulin-degrading enzyme (IDE). [Related pubchem assays: 434962 (Primary screen (IDE inhibitors in singlicate)), 449730 (Counterscreen (Cytotoxicity in triplicate)), 435028 (Confirmation (IDE inhibitors in triplicate)), 434984 (Summary …; assay type: functional
T2 sequence (P14735 whole entry): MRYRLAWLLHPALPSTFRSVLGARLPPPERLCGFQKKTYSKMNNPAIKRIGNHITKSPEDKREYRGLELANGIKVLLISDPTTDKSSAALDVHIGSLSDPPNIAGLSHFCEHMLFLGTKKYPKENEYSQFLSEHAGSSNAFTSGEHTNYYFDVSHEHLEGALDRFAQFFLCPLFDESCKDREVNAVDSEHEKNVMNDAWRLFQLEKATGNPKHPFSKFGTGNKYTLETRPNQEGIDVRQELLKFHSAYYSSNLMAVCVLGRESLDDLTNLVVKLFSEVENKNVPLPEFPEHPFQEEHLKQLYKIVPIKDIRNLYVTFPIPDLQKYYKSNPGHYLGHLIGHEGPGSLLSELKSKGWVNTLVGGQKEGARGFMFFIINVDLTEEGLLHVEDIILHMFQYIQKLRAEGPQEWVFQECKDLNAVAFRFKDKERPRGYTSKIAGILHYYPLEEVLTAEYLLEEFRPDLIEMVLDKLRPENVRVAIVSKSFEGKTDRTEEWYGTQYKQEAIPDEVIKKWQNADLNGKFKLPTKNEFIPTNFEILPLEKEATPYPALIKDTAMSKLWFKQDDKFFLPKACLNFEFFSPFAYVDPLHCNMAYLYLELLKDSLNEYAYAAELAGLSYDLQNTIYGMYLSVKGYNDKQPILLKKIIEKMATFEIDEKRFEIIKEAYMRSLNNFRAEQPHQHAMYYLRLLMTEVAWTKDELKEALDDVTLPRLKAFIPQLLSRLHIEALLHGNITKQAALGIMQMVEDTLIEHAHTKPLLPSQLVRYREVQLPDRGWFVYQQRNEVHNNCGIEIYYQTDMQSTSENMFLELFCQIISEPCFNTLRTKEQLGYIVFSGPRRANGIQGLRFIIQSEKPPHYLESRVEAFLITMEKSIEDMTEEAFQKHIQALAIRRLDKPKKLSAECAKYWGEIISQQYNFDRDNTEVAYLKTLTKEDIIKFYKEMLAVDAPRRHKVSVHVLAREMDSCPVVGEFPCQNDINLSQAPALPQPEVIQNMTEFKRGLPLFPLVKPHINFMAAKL

[6] = enhancers of respiration in Yfh1-depleted yeast, dose response, Friedreich's ataxia, plus single-dose screen (AID 1465); assay type: functional;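 note: yeast depleted of Yfh1p frataxin homolog grown on glycerol needing respiration; WST-1 tetrazolium dye reduction as measure of cellular dehydrogenase metabolic activity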
[7] = molecular target: T1, Sphingosine 1-phosphate receptor 2; test: Dose Response Cell-Based Assay for Agonists of the Sphingosine 1-Phosphate Receptor 2 (S1P2): Purchased Analogues. [Related pubchem assays: 1192, 373, 439 ]; assay type: functional
[8] = molecular target: Sphingosine 1-phosphate receptor 1 (Homo sapiens, UniProt P21453); test: Dose Response Cell-Based Assay for Agonists of the Sphingosine 1-Phosphate Receptor 1 (S1P1): Purchased Analogues. [Related pubchem assays: 1192, 373, 439 ]; assay type: functional
[9] = molecular target: Sphingosine 1-phosphate receptor 3 (Homo sapiens, UniProt Q99500); test: Dose Response Cell-Based Assay for Agonists of the Sphingosine 1-Phosphate Receptor 3 (S1P3): Purchased Analogues. [Related pubchem assays: 373, 439 ]; assay type: functional
[10] = molecular target: T3, E3 ubiquitin-protein ligase XIAP (Homo sapiens, UniProt P98170); test: Counter Screen using XIAP-Bir3 for Chemical Antagonists of Bir1/2 domains of IAP-family anti-apoptotic proteins. [Related pubchem assays (depositor defined):AID1018, AID1449, AID1514, AID1638, AID1749, AID1750, AID488957, AID488963]
[11] = molecular target: T3, E3 ubiquitin-protein ligase XIAP; test: XIAP antagonists, biochemical, IAP family, fluorescence polarization (AID 1018); assay type: functional
[12] = system: HEK293; test: Fluorescence-based counterscreen for potentiators or agonists of NPY-Y2: cell-based high-throughput dose response assay to identify inhibitors of cyclic nucleotide gated ion channel (CNGC) activity. In this assay, the parental HEK293 cell line transfected with a cyclic-nucleotide gated ion channel (CNGC)-based cAMP sensor is used to measure inhibition of isoproterenol-induced CNGC activity by test compound.; assay type: functional; conditions: Homo sapiens;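 note: stimulus is 1 µM isoproterenol at EC100 plus PDE inhibitor Ro 20-1724 at 25 µM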
[13] = molecular target: T4, Neuropeptide Y receptor type 2 (Homo sapiens, UniProt P49146); test: Fluorescence-based cell-based high-throughput dose response assay for agonists of NPY-Y2. [Related pubchem assays: 1703 (Screening assay (CNGC inhibitors).), 1359 (Screening assay (NPY-Y2 potentiators or agonists).), 1304 (Screening assay (NPY-Y1 potentiators or agonists).), 1710 (Screening assay (NPY-Y2 agonists).), 1791 (Summary AID.)]; assay type: functional
T4 sequence (P49146 whole entry): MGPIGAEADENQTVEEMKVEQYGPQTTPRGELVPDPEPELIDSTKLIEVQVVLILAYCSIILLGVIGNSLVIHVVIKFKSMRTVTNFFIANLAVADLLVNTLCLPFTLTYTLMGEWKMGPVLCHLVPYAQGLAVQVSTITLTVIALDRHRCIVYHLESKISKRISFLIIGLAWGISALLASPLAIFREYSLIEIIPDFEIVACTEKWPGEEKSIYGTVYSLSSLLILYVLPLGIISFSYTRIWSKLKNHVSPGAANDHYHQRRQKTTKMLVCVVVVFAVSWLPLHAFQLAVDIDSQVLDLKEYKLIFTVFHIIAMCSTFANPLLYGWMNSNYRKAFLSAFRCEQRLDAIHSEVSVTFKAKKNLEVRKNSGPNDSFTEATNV

[14] = molecular target: T5, Neuropeptide Y receptor type 1 (Homo sapiens, UniProt P25929); test: Fluorescence-based counterscreen for agonists of NPY-Y2: cell-based high-throughput dose response assay for agonists of NPY-Y1.; assay type: functional
T5 sequence (P25929 whole entry): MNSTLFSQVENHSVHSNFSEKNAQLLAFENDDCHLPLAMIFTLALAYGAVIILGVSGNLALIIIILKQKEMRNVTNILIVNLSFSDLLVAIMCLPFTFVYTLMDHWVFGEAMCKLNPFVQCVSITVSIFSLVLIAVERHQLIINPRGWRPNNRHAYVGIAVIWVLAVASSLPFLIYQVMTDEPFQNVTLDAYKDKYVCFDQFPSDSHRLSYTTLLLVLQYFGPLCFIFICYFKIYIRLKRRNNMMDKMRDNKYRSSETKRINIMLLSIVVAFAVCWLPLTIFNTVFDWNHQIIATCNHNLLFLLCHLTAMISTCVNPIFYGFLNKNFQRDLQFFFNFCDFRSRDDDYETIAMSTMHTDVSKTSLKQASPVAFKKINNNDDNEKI

T1 sequence (O95136 whole entry): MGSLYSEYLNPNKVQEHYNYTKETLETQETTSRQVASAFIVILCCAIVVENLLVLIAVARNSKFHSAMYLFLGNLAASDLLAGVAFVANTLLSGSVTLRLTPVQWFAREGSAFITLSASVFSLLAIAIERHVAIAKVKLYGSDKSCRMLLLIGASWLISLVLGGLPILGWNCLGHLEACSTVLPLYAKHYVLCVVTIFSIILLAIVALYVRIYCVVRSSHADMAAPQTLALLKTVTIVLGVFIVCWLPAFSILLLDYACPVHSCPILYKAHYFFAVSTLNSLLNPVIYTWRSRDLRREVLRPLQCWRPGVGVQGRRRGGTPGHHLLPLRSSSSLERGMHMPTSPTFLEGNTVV
T3 sequence (P98170 whole entry): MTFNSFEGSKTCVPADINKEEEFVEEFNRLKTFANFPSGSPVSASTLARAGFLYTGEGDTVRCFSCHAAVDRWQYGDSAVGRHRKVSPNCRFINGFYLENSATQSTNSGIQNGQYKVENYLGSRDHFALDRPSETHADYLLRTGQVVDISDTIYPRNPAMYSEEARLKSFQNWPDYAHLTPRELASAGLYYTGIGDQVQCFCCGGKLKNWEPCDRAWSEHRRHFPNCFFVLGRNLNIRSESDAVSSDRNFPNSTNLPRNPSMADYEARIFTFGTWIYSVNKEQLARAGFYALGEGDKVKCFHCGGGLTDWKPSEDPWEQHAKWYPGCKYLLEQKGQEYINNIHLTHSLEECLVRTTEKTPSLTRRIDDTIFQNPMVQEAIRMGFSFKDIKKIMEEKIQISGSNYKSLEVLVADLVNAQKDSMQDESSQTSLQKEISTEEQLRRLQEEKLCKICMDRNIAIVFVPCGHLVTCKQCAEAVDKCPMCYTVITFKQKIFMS
Sphingosine 1-phosphate receptor 3, sequence (Q99500 whole entry): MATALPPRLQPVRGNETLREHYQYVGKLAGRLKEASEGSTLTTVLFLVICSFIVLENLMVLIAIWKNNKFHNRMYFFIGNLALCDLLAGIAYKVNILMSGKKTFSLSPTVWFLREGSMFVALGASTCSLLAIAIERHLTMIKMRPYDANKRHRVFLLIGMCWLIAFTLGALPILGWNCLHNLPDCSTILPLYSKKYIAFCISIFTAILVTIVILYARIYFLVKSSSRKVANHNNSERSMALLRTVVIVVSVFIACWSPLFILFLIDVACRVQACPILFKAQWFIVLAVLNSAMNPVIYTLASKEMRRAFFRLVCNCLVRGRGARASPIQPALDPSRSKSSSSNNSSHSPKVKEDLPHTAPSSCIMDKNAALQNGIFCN
Sphingosine 1-phosphate receptor 1, sequence (P21453 whole entry): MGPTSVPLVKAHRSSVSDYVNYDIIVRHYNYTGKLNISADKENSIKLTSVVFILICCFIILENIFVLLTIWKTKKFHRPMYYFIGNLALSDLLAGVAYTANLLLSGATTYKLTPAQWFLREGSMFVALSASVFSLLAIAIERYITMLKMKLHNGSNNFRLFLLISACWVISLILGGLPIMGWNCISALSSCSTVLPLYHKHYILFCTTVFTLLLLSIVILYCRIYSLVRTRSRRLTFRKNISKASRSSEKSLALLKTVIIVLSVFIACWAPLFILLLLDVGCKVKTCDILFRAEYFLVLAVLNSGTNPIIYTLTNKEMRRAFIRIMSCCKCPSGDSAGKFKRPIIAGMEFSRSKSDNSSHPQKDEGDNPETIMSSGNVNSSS
Mucolipin-3, sequence (Q8TDD5 whole entry): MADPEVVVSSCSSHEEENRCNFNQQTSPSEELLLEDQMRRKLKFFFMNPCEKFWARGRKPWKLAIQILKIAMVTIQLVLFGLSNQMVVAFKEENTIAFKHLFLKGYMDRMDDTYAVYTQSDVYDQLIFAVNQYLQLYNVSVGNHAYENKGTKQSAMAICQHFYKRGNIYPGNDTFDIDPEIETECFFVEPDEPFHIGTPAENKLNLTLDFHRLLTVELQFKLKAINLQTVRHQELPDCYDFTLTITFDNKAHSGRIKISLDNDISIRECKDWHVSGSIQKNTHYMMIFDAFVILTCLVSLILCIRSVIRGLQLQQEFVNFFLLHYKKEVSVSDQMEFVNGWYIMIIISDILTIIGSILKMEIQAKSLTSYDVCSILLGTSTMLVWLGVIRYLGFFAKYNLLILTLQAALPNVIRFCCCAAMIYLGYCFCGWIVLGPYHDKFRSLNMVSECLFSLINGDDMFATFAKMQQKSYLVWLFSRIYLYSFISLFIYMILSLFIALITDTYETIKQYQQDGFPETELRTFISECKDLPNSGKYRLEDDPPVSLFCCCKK
Ion channel NompC, sequence (Q7T1G6 whole entry): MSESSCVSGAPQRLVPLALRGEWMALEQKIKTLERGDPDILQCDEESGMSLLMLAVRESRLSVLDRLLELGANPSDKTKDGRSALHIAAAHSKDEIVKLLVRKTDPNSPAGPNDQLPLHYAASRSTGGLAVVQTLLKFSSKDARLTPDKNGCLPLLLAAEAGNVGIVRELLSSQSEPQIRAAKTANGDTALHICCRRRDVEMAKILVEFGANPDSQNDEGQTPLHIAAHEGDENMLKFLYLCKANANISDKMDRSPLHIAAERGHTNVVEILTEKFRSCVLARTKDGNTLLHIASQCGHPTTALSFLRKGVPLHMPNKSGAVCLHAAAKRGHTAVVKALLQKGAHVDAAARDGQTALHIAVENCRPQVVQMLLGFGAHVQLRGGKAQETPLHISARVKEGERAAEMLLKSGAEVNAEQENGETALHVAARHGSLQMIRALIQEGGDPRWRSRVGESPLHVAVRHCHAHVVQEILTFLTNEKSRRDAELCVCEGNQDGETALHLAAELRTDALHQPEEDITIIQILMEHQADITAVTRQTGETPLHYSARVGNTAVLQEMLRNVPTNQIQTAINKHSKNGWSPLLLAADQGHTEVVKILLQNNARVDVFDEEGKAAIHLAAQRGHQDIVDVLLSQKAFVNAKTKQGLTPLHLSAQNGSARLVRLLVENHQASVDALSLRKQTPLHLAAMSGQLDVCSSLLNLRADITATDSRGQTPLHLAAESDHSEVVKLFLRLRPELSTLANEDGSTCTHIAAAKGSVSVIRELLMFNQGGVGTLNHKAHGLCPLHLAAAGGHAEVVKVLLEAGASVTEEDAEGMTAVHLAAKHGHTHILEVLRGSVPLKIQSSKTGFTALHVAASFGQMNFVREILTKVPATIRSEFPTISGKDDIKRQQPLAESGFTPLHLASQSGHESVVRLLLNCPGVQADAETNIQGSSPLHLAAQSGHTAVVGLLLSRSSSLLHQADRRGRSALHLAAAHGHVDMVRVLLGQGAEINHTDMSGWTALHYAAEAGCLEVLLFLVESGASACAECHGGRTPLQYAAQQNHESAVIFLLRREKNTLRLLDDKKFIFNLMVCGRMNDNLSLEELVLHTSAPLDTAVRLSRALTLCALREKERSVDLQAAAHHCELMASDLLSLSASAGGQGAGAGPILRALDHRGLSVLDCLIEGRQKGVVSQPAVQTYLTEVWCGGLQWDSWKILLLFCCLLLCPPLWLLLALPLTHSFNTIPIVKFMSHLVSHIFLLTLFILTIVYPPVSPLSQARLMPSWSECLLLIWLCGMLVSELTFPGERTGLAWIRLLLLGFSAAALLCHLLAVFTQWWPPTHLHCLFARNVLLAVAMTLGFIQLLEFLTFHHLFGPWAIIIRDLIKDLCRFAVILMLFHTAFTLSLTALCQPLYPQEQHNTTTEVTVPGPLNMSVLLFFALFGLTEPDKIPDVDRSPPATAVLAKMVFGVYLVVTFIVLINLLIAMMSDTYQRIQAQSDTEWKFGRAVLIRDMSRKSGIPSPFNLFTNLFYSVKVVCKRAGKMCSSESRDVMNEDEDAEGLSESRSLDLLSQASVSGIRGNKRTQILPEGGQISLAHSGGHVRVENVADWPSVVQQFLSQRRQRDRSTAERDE

In the case of `COc1ccc(C(N)=O)c(OCC(=O)c2cc(C)n(Cc3ccccc3)c2C)c1`, the EC50 [1] is reported as > 30 µM (not active).

For `CN(C1CCCCC1)S(=O)(=O)c1cccc(C(=O)OCC(=O)NC2CCCc3ccccc32)c1` (centres undefined), the EC50 [2] was 2.86 µM (active) and the EC50 [3] was > 29.9 µM (not active).

In the case of `O=C1NC(=O)N(c2ccc3c(c2)OCO3)C(=O)/C1=C\c1ccc(N2CCCCC2)o1`, the IC50 [4] is reported as > 55.7 µM (not active), the IC50 [5] is reported as 21 µM (not active) and the EC50 [6] is reported as > 100 µM (active).

With `NC(=O)C1CCN(C(=O)c2cc(-c3ccccc3)on2)CC1` the EC50 [7] was > 10 µM (not active), the EC50 [8] was > 50 µM (not active) and the EC50 [9] was > 50 µM (not active).

In the case of `COc1ccc(C(=O)C2=C(O)C(=O)N(CC3CCCO3)C2c2cccc(OC)c2)cc1` (centres undefined), the IC50 [10] is reported as > 100 µM (inactive) and the IC50 [11] is reported as > 100 µM (not active).

For `O=C(/C=C/c1cn(-c2ccccc2)nc1-c1cccnc1)N1CCCC1`, the EC50 [12] was > 35.4 µM (not active), the EC50 [13] was > 35.4 µM (not active) and the EC50 [14] was > 35.4 µM (not active).
